Results from US7078552B2, “Combretastatin A-1 phosphate and combretastatin B-1 phosphate prodrugs” (Arizona Board of Regents, priority 2000, dated 2006).
pIC50: −log10 of the molar value. Values after ≈ are worked out from the molar mass of the structure shown. Like-named read-outs stand apart in the source and are kept apart here.

Experiments:
[1] = system: P388 lymphocytic leukemia cell line; assay: Murine P388 lymphocytic leukemia in vitro cell growth inhibition; type: cell-based
[2] = system: BXPC-3; assay: Human cancer cell line growth inhibition, Pancreas-a BXPC-3; type: cell-based; details: for GI50: Homo sapiens
[3] = system: NCl-H460; assay: Human cancer cell line growth inhibition, Lung-NSC NCl-H460; type: cell-based; details: for GI50: Homo sapiens
[4] = system: DU-I45; assay: Human cancer cell line growth inhibition, Prostate DU-I45; type: cell-based; details: for GI50: Homo sapiens
[5] = system: P388 lymphocytic leukemia cell line; details: literature (Pettit et al, 1987, 1989); cited from earlier work
[6] = system: tubulin (microtubule assembly); details: literature (Pettit et al, 1987, 1989); read-out: IC50 inhibiting microtubule assembly in vitro; cited from earlier work
[7] = system: tubulin; details: at equal concentrations; cited from earlier work
[8] = system: P388 leukemia; details: early murine P388 leukemia in vivo experiments, compared with combretastatin A-4; cited from earlier work
[9] = system: OVCAR-3; assay: Human cancer cell line growth inhibition, Ovarian OVCAR-3; type: cell-based; details: for GI50: Homo sapiens
[10] = system: SF-295; assay: Human cancer cell line growth inhibition, CNS SF-295; type: cell-based; details: for GI50: Homo sapiens
[11] = system: KM20L2; assay: Human cancer cell line growth inhibition, Colon KM20L2; type: cell-based; details: for GI50: Homo sapiens, KM-20L2
[12] = 1 mL distilled water at 25° C., Table I
[13] = physchem; details: water
[14] = system: P388 and human tumor cell lines; assay: Cytotoxicity versus the P388 and human tumor cell lines, comparative statements

Compound | Leukemia P388 ED50 ([1]; P388 cell line) [µg/mL] | Pancreas-a BXPC-3 GI50 [2] [µg/mL] | Lung-NSC NCl-H460 GI50 [3] [µg/mL] | Prostate DU-I45 GI50 [4] [µg/mL] | Ovarian OVCAR-3 GI50 [9] [µg/mL] | CNS SF-295 GI50 [10] [µg/mL] | Colon KM20L2 GI50 [11] [µg/mL] | further results
COc1ccc(/C=C\c2cc(OC)c(OC)c(OC)c2)c(O)c1O [Compound 1, Combretastatin A-1] | 0.251 | 4.4 | 0.74 | 0.17 |  |  |  | ED50 against murine P388 lymphocytic leukemia in vitro system [5]: 0.99 µg/mL (≈ 2980 nM); pIC50 [6]: 5.70; inhibition of colchicine binding to tubulin [7]: ~99%; antineoplastic results in vivo [8]: more consistent antineoplastic results
COc1ccc(CCc2cc(OC)c(OC)c(OC)c2)c(O)c1O [Compound 2, combretastatin B-1] |  |  |  |  |  |  |  | Leukemia P388 ED50 [1]: 1.7 µg/mL; ED50 against murine P388 lymphocytic leukemia in vitro system [5]: 1.7 µg/mL (≈ 5080 nM); pIC50 [6]: 5.52
COc1ccc(/C=C\c2cc(OC)c(OC)c(OC)c2)cc1O [Compound 3a, combretastatin A-4, reference compound] | […] |  |  |  |  |  |  | GI50 [2]: 0.39 µg/mL (≈ 1230 nM); GI50 [9]: < 0.001 µg/mL; GI50 [10]: < 0.001 µg/mL; GI50 [3]: 0.0006 µg/mL (≈ 1.9 nM); GI50 [11]: 0.061 µg/mL (≈ 193 nM); GI50 [4]: 0.0008 µg/mL (≈ 2.53 nM); ED50 against murine P388 lymphocytic leukemia in vitro system [5]: ~0.0009 µg/mL (≈ 2.84 nM); pIC50 [6]: […]
COc1cc(/C=C\c2ccc(OC)c(OP(=O)(O)O)c2OP(=O)(O)O)cc(OC)c1OC [Compound 4, Sodium Combretastatin A-1 2′,3′-O-diphosphate] | <0.0100 |  |  |  |  |  |  | GI50 [2]: 1.5 µg/mL; GI50 [9]: 0.024 µg/mL; GI50 [10]: 0.036 µg/mL; GI50 [3]: 0.038 µg/mL; GI50 [11]: 0.53 µg/mL; GI50 [4]: 0.034 µg/mL; solubility ([12]; second part (column repeated)): 120 mg/mL; solubility ([13]; 25 °C): 120 mg/mL; solubility [13]: 120 mg/mL
COc1cc(CCc2ccc(OC)c(OP(=O)(O)O)c2OP(=O)(O)O)cc(OC)c1OC [Compound 5, Sodium Combretastatin B-1 2′,3′-O-Diphosphate] | 0.335 |  |  |  |  |  |  | GI50 [2]: > 10 µg/mL; GI50 [9]: 2 µg/mL; GI50 [10]: 2.3 µg/mL; GI50 [3]: 3.3 µg/mL; GI50 [11]: > 10 µg/mL; GI50 [4]: 2.7 µg/mL; solubility ([13]; 25 °C): > 50 mg/mL; cytotoxicity / antineoplastic activity compared to prodrug 4 [14]: reduced antineoplastic activity
COc1cc(/C=C\c2ccc(OC)c(OP(=O)([O-])[O-])c2OP(=O)([O-])[O-])cc(OC)c1OC.[Li+].[Li+].[Li+].[Li+] [Compound 11a, Lithium Combretastatin A-1 2′,3′-O-diphosphate] | <0.0100 | 0.33 | 0.040 | 0.031 | 0.028 | 0.042 | 0.37 | 
COc1cc(/C=C\c2ccc(OC)c(OP(=O)([O-])[O-])c2OP(=O)([O-])[O-])cc(OC)c1OC.[K+].[K+].[K+].[K+] [Compound 11b, Potassium Combretastatin A-1 2′,3′-O-diphosphate] | 0.0170 | 0.38 | 0.036 | 0.024 | 0.023 | 0.035 | 0.30 | solubility ([12]; first part): >90 mg/mL; solubility ([12]; second part (column repeated)): >90 mg/mL
COc1cc(/C=C\c2ccc(OC)c(OP(=O)([O-])[O-])c2OP(=O)([O-])[O-])cc(OC)c1OC.[Cs+].[Cs+].[Cs+].[Cs+] [Compound 11c, Cesium Combretastatin A-1 2′,3′-O-diphosphate] | 0.0365 | 0.31 | 0.040 | 0.024 | 0.024 | 0.038 | 0.28 | 
COc1cc(/C=C\c2ccc(OC)c(OP(=O)([O-])[O-])c2OP(=O)([O-])[O-])cc(OC)c1OC.[Mn+2].[Mn+2] [Compound 11f, Manganese Combretastatin A-1 2′, 3′-O-diphosphate] | 0.715 | 4.7 | 0.19 | 2.4 | 0.044 | 0.28 | 6.1 | 
COc1cc(/C=C\c2ccc(OC)c(OP(=O)([O-])[O-])c2OP(=O)([O-])[O-])cc(OC)c1OC.[Zn+2].[Zn+2] [Compound 11g, Dizinc Combretastatin A-1 2′,3′-O-diphosphate] | 0.0394 | 0.36 | 0.032 | 0.025 | 0.027 | 0.033 | 0.32 | 
Calcium Combretastatin A-1 2′,3′-O-diphosphate [Compound 11e] | 0.0102 | 0.28 | 0.037 | 0.024 | 0.024 | 0.041 | 0.34 | 
Magnesium Combretastatin A-1 2′,3′-O-diphosphate [Compound 11d] | 0.0245 | 0.44 | 0.039 | 0.032 | 0.031 | 0.039 | 0.47 | 
Morpholine Combretastatin A-1 2′,3′-O-diphosphate [Compound 11h] | 0.002 | 0.35 | 0.046 | 0.039 | 0.043 | 0.042 | 0.26 | 
Nicotinamide Combretastatin A-1 2′,3′-O-diphosphate [Compound 11j] | 0.005 | 0.42 | 0.15 | 0.046 | 0.054 | 0.053 | 0.53 | 
Papaverine Combretastatin A-1 2′,3′-O-diphosphate [Compound 11n] | 0.05 | 0.38 | 0.27 | 0.054 | 0.052 | 0.063 | 0.33 | 
Piperazine Combretastatin in A-1 2′,3′-O-diphosphate [Compound 11i] | 0.002 | 0.35 | 0.037 | 0.036 | 0.046 | 0.039 | 0.20 | 
Quinidine Combretastatin A-1 2′,3′-O-diphosphate [Compound 11l] | 0.004 | 0.55 | 0.37 | 0.10 | 0.043 | 0.056 | 0.84 | 
Quinine Combretastatin A-1 2′,3′-O-dephosphate [Compound 11k] | 0.004 | 0.47 | 0.34 | 0.050 | 0.054 | 0.044 | 0.40 | 
